This note sets out measurements from article PMC6964506 (ACS Omega, 2019).

One test has as its system MDA-MB-231 cells. Nature of the test: Mammosphere formation assay. In kind it is cell-based. Conditions: MDA-MB-231, 6 days suspension then 72 h with 5 μM.
The next test deals with PDE6D/avi-K-RasFMe (Homo sapiens, UniProt O43924). Nature of the test: SPR inhibition of PDE6D binding to captured avi-K-RasFMe.
The target in test [1] is K-RasG12V/PDE6D interaction (Homo sapiens, UniProt O43924). Nature of the test: PDE6D/K-Ras interaction by FLIM-FRET in HEK cells. The following applies: 5 μM, 24 h. In kind it is cell-based.
In the next test the test system is Hs 578T cells. Nature of the test: Mammosphere formation assay. The test is classed as cell-based. The following applies: 6 days suspension then 72 h with 5 μM.
A further test has as its system A375 cells. Nature of the test: Tumorosphere viability, drug sensitivity score. Conditions: B-RafV600E mutant A375 spheroids, 72 h, 0 to 20 μM. In kind it is cell-based.
The subject of a further test is H-RasG12V. Nature of the test: H-Ras nanoclustering-FRET. The test is classed as cell-based. The following applies: HEK cells, 5 μM (FTI-277 0.2 μM), 24 h.
Another test has as its system K-RasG12V. Nature of the test: K-Ras nanoclustering-FRET. The test is classed as cell-based. The following applies: HEK cells, 24 h; for dose-dependent effect on K-RasG12V nanoclustering-FRET: various concentrations, compared with 24 and 25.
In the next test the test system is NCI-H358 cells. Nature of the test: Tumorosphere viability, drug sensitivity score. Conditions: NCI-H358 tumorospheres, 72 h, 0 to 20 μM. In kind it is cell-based.

Sequence of K-RasG12V/PDE6D interaction (O43924 whole entry): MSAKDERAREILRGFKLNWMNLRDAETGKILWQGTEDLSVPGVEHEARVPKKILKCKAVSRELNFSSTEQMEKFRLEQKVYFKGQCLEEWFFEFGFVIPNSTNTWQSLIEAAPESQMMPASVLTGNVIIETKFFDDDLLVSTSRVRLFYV
Sequence of PDE6D/avi-K-RasFMe (O43924 whole entry): as above

For the compound `CCOC(=O)C(C)(COP(=O)(OC)OCC1CCC(CNC(=O)c2cc3ccccc3oc2=O)CC1)C(=O)CSC(C)=O` (stereo not drawn) [compound 17], the “effect on mammosphere formation (SFE)” value in the test on MDA-MB-231 cells is given as “no significant effect”. Further, on PDE6D/avi-K-RasFMe, the IC50 (commonly the concentration at which inhibition is half-maximal) was 6.7 ± 0.1 µM and the dissociation constant (Kd) (usually the equilibrium constant for the complex coming apart) worked out at 4.97 ± 0.07 µM. Also, in test [1], the “effect on K-RasG12V/PDE6D FLIM-FRET” value is reported as “lacked in cellulo activity”. The “effect on mammosphere formation (SFE)” value in the test with Hs 578T cells is “no significant effect”.

`C=CC(=O)N1CCN(c2ncnc3c(F)c(-c4c(O)cccc4F)c(Cl)cc23)CC1` [ARS-1620]: the “activity on spheroid viability (DSS)” value in the test on A375 cells is “inactive”.

Consider `COC(=O)c1ccc(C(=O)NCCCCCCOP(=O)(OC)OCC(C)(C)C(=O)CSC(C)=O)cc1N` (stereo not drawn) [compound 23], for which, in the test on H-RasG12V, the “effect on H-RasG12V nanoclustering-FRET” value is “No effect”. For the same compound, the “dose-dependent effect on K-RasG12V nanoclustering-FRET” value in the test on K-RasG12V is on record as “significant dose-dependent reduction”. Also, the “activity on spheroid viability (DSS)” value with A375 cells is “inactive”. In test [1], the “effect on K-RasG12V/PDE6D FLIM-FRET” value was “performed as well as 15 and somewhat better than 22”. Moreover, in the test with Hs 578T cells, the “effect on mammosphere formation (SFE)” value was “but not H-RasG12V-mutant Hs 578T-mammosphere formation”.

For the compound `c1ccc(Cn2c(-c3ccc(OC[C@H](C4CCNCC4)n4c(-c5ccccc5)nc5ccccc54)cc3)nc3ccccc32)cc1` [Deltarasin, reference compound], the “activity on spheroid viability (DSS)” value in the test with NCI-H358 cells and with A375 cells was “equally high activity in both cell lines” throughout. Also, in the test with H-RasG12V, the “effect on H-RasG12V nanoclustering-FRET” value is reported as “reduced FRET of both Ras isoforms about equally”. Also, in the test with K-RasG12V (5 μM (FTI-277 0.2 μM)), the “effect on K-RasG12V nanoclustering-FRET” value is listed as “reduced FRET of both Ras isoforms about equally”. Also, the half-maximal inhibitory concentration (IC50) in the test on K-RasG12V (read-out: IC50 K-Ras nanoclustering-FRET (mean ± SEM), n = 3) was 0.7 ± 0.4 µM.

As to `COC(=O)c1ccc(C(=O)NCCCCOP(=O)(OC)OCC(C)(C)C(=O)CSC(C)=O)cc1N` (stereo not drawn) [compound 25], the “effect on mammosphere formation (SFE)” value in the test with MDA-MB-231 cells and in the test on Hs 578T cells was “inactive” throughout. Moreover, in test [1], the “effect on K-RasG12V/PDE6D FLIM-FRET” value was “performed better than 24”.

Regarding `CCOC(=O)C(C)(COP(=O)(OC)OCCCCCCNC(=O)c1ccc(C(=O)OC)c(N)c1)C(=O)CSC(C)=O` (stereo not drawn) [compound 22], the “effect on H-RasG12V nanoclustering-FRET” value in the test with H-RasG12V is given as “No effect”. Further, the “dose-dependent effect on K-RasG12V nanoclustering-FRET” value with K-RasG12V is listed as “significant dose-dependent reduction”. At PDE6D/avi-K-RasFMe, this compound returned a half-maximal inhibitory concentration (IC50) of 10.27 ± 0.03 µM and a dissociation constant Kd of 7.62 ± 0.02 µM. In addition, the “fold lower affinity than analogue 23” value on PDE6D/avi-K-RasFMe (SPR) is recorded as 2.6 fold.

`O=C(NCCCCCCO)c1cc2ccccc2oc1=O` [compound 14]: at PDE6D/avi-K-RasFMe, the half-maximal inhibitory concentration (IC50) was found to be 18.9 ± 0.2 µM and the Kd turned out to be 14.1 ± 0.2 µM. In addition, the “effect on K-RasG12V/PDE6D FLIM-FRET” value in test [1] was “did not block the interaction”.
